Values quoted from earlier work as cited in patent US20250000913A1, “SALMONELLA ENGINEERED FOR NONTOXIC COLONIZATION OF TUMORS” (priority 2021, published 2025).

Experiments:
[1] = in vivo
[2] = mouse, in vivo

In the case of `COc1cc(C(=O)c2ccc(-c3csc(NC(=O)[C@@H](N)C(C)C)n3)cc2-n2cncn2)cc(OC)c1OC.Cl` [CKD-516], the “half-life of circulating CKD-516” value [1] is listed as “about 5 hours”.

In the case of `COc1cccc2c1C(=O)c1c(O)c3c(c(O)c1C2=O)C[C@@](O)(C(=O)CO)C[C@@H]3O[C@H]1C[C@H](N)[C@H](O)[C@H](C)O1` [doxorubicin], the “day on which weight gain resumed” value [2] is listed as 21 days and the weight loss [2] is listed as “over 25%”.
